Data on two molecules can be found in ChEMBL document CHEMBL1153727, “Crotonkinensins A and B, diterpenoids from the Vietnamese medicinal plant Croton tonkinensis” (J Nat Prod, 2009).

Assay [1] deals with RAW264.7. The assay is described as follows: Antiinflammatory activity in LPS-stimulated mouse RAW264.7 cells assessed as inhibition of beta-gal-tagged COX2 promoter activity pretreated 30 mins before LPS administration measured after 24 hrs by luciferase reporter gene assay relative to control. It counts as functional, cell-based.
The test system of assay [2] is RAW264.7. As to the kind of experiment: Antiinflammatory activity in LPS-stimulated mouse RAW264.7 cells assessed as inhibition of COX2 protein expression at 10 to 100 uM pretreated 30 mins before LPS administration measured after 24 hrs by Western blot analysis. It counts as functional, cell-based.

The source made the active and inactive calls. No cut-off for these calls is given here.

Consider `C=C1C(=O)[C@@]23[C@@H]4CC5=C(C(=O)CC5(C)C)[C@@](C)(O4)[C@@H]2CC[C@@H]1[C@H]3O` [CROTONKINENSIN A], for which, in assay [1], the IC50 worked out at 7.14 µM and the inhibition result was “Dose-dependent effect”. Also, the inhibition entry in assay [2] is “Active”.

As for `C=C1C(=O)[C@@]23[C@@H]4C[C@H]5C(=CCC5(C)C)[C@@](C)(O4)[C@@H]2CC[C@@H]1[C@H]3O` [CROTONKINENSIN B], in assay [1], the IC50 turned out to be 5.49 µM and the inhibition result is “Dose-dependent effect”. In assay [2], the inhibition result was “Active”.
